This assay relates to bacteria/yeasts cocktail indicated in table 28. Nature of the assay: Disinfection test on simulated wagon washing water with Ca(OH)2. Format: cell-based. The method, then: In order to simulate wagon washing water, a buffered kitchen salt solution was used, comprising 3% by weight of a suspension of calcium carbonate, taken from example 1.
The Ca(OH)2 was dissolved in a buffered solution of sterile phosphate at 0.85% by weight (PBS) and was mixed after 24 hours' storage at 30° C. with the bacteria/yeasts cocktail indicated in table 28.
The samples were incubated once more for 24 hours at 30° C. and then removed from the plates.
The germs which had grown were examined under an optical microscope.
A cocktail of bacteria (in PBS), firstly, and a bacteria/yeasts cocktail in (PBS), secondly, were mixed with Ca(OH)2, stored, and then removed from their moulds.
Tables 29 and 30 indicate the OH^− ion concentration (mole/l) and the yeast germ concentration (number/ml) measured in the samples, after 24-hours' incubation, for different initial concentrations of Ca(OH)2.
Samples 9 and 10 of initial Ca(OH)2 concentration equal to 1000 ppm were then removed from their mould at 30° C. on to a bacterial medium called a PCA (Plate Count Agar).
After 48 hours' incubation, the samples are once again removed from their moulds on to the same medium of type PCA.
For a part of sample 9, named 9-2, the OH^− ion concentration was reduced to a value of 5×10^−7 mole/l by the addition of gaseous CO2. […]

With `[Ca+2].[OH-].[OH-]` [Ca(OH)2], the microbial germs entry (curative mode, initial Ca(OH)2 1000 ppm, after 24 hours) was “less than 10 number/ml”. Where the note is “protective mode, initial Ca(OH)2 200 ppm, after 24 hours' incubation at 30° C.”, the microbial germs concentration was 1000 number/ml.

The values above are taken from patent US8889068B2, “Method for controlling microbial contamination, mineral suspensions obtained and uses thereof” (Omya International AG, priority 2005, dated 2014).
